Tests used:
[1] = molecular target: T1, GPR41 (Mus musculus, UniProt Q3UFD7); assay: inhibition of forskolin-induced cAMP in doxycycline-inducible mouse GPR41 HEK293 cells; assay type: cell-based
T1 construct: gene Ffar3; mouse GPR41 cDNA in pcDNA5/FRT/TO, expressed in Flp-In T-Rex HEK 293 cells
T1 sequence (Q3UFD7 1-319): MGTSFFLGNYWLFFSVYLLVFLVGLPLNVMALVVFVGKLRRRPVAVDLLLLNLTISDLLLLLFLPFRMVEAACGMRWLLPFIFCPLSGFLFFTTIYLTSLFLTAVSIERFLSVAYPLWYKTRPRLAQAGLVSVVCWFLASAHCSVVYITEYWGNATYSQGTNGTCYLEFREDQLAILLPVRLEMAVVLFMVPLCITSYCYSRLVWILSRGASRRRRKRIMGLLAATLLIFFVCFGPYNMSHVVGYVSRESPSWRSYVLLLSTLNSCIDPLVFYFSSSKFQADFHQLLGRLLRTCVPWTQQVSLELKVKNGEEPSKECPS

[2] = molecular target: T1, GPR41; assay: inhibition of forskolin-induced cAMP in doxycycline-inducible mouse GPR41 HEK293 cells; Dox(-) controls inactive; assay type: cell-based

EC50 [1]	EC50 [2]	Structure (SMILES)
5.58 mM	–	COc1cc(/C=C/C(=O)O)ccc1O [HMCA, 4-hydroxy-3-methoxycinnamic acid]
–	2.36 mM	COc1cc(CCC(=O)O)ccc1O [HMPA, 3-(4-hydroxy-3-methoxyphenyl) propionic acid]
